Assay: method code SF-GLC, from DOI: 10.1002/qsar.19850040403
Conditions: pH 13.0

SMILES | logD
CCCN(CC)CC(F)(F)F | 2.38
CCCCCCCN | 2.57
C1CN2CCC1CC2 | 1.38
C1CCNC1 | 0.46
CCCN(CCC)CCC | 2.79
C=CCNCC | 0.81
CCNCC(F)(F)F | 0.74
CCCNC(C)CC (centres undefined) | 1.91
CCCCC(CC)CN (centres undefined) | 2.82
CC(C)N | 0.26
NCC(F)(F)F | 0.24
CN(C)CC(F)(F)F | 1.06
CCN(CC)CC(F)(F)F | 1.88

The remaining lines, values ahead:

logD | SMILES
0.55 | CNCC(F)(F)F
2.12 | CCCCNCCC
0.7 | CCN(C)C
2.18 | CCCN(C)CC(F)(F)F
2.07 | CCCNCC(C)C
1.33 | C=CCNCCC
0.15 | CCNC
2.68 | CCCN(CC)CCC
1.49 | CCCCCN
0.73 | CC(C)CN
0.93 | CCNC(C)C

Reference: the SangsterLogP compilation
